Assays:
[1] = molecular target: T1, Alpha-2A adrenergic receptor (Homo sapiens, UniProt P08913); type: cell membranes, Sf9, Membrane; also: in other assays of this panel Not Active means under 50% inhibition at 10 µM
T1 sequence (P08913 whole entry): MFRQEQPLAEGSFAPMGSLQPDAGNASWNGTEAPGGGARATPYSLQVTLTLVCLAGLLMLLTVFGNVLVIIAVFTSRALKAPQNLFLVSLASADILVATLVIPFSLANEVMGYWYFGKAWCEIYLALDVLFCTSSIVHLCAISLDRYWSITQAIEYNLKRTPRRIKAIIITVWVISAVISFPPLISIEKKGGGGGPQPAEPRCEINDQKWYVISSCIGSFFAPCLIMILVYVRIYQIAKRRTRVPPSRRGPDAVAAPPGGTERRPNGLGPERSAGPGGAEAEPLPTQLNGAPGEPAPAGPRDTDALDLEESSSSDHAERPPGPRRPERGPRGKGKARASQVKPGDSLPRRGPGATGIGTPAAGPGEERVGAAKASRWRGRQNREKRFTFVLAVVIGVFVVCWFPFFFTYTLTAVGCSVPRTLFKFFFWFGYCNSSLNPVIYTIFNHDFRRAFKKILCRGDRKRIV

Substance-K receptor = molecular target: T2, Substance-K receptor (Homo sapiens, UniProt P21452); type: cell membranes, CHO, Membrane; conditions: cho; also: in other assays of this panel Not Active means under 50% inhibition at 10 µM
T2 sequence (P21452 whole entry): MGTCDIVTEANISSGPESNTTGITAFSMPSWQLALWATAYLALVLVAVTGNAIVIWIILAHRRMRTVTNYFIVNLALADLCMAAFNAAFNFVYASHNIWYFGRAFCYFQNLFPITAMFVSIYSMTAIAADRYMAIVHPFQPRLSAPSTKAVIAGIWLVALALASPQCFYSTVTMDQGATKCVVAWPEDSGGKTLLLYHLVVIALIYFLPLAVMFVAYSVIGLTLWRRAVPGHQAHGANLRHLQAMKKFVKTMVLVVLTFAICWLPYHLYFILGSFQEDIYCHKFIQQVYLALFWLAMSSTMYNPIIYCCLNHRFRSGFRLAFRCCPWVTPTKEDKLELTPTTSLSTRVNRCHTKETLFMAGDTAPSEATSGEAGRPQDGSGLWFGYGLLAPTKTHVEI

[2] = DRUGMATRIX: Glutamate, NMDA, Agonism radioligand binding (ligand: [3H] CGP-39653); type: cell membranes, Rattus norvegicus, Wistar, Cerebral cortex, Membrane; conditions: Not Active = under 50% inhibition at 10 µM
[3] = molecular target: Receptor tyrosine-protein kinase erbB-2 (Homo sapiens, UniProt P04626); test: biochemical; type: cell-based, Insect cells; conditions: insect cells;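 also: inhibition of HER2 kinase enzyme activity, measured with Poly(Glu:Tyr) as the phosphorylation substrate; in other assays of this panel Not Active means under 50% inhibition at 10 µM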
Estrogen receptor = molecular target: T3, Estrogen receptor (Homo sapiens, UniProt P03372); conditions: sf9; also: in other assays of this panel Not Active means under 50% inhibition at 10 µM
T3 sequence (P03372 whole entry): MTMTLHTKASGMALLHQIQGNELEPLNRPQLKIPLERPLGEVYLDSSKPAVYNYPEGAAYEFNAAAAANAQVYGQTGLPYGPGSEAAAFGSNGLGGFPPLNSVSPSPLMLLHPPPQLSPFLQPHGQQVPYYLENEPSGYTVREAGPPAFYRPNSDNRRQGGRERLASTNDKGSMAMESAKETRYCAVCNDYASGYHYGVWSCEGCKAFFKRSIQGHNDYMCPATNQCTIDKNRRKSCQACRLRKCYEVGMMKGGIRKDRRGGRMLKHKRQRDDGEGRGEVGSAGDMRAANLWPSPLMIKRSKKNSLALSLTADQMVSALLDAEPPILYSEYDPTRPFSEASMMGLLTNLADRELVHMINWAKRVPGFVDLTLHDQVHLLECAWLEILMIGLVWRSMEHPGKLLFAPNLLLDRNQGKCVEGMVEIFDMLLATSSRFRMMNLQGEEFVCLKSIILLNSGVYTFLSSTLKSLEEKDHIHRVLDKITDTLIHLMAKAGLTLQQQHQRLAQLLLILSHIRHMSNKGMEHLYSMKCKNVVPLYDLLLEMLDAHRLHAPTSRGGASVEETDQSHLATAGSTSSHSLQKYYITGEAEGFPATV

Glucocorticoid receptor = molecular target: T4, Glucocorticoid receptor (Homo sapiens, UniProt P04150); conditions: hela s3; also: in other assays of this panel Not Active means under 50% inhibition at 10 µM
T4 sequence (P04150 whole entry): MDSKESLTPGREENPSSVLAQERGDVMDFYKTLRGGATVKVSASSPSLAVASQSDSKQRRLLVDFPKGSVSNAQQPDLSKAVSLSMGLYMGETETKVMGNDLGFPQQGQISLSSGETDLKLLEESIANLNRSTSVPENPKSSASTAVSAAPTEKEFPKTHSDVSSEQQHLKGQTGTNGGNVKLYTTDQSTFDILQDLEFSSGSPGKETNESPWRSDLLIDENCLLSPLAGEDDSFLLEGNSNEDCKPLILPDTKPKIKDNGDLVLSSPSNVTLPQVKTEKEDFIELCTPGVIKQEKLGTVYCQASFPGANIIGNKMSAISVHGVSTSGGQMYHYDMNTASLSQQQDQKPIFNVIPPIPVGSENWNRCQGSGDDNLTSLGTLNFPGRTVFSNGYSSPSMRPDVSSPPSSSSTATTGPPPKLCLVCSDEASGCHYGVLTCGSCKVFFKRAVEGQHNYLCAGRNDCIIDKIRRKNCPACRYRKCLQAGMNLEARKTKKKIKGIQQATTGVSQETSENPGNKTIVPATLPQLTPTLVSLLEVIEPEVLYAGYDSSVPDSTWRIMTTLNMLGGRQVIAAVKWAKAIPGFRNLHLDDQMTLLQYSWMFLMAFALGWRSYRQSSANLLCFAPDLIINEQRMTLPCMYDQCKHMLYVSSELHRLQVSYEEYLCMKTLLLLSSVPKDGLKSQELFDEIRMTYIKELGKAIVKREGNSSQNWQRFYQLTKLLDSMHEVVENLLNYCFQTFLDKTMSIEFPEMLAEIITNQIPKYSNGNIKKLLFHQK

Molecule | IC50 ([1]; sf9) | IC50 (Substance-K receptor) | IC50 [2] | Ki [2] | IC50 [3] | IC50 (Estrogen receptor) | IC50 (Glucocorticoid receptor) | IC50 ([1]; read-out: IC50) | Ki ([1]; read-out: Ki) | Ki ([1]; sf9) | Ki (Substance-K receptor) | Ki [3] | Ki (Estrogen receptor) | Ki (Glucocorticoid receptor)
COc1nc(C)nc(Cl)c1NC1=NCCN1 [MOXONIDINE] | Not Active | Not Active | Not Active | Not Active | Not Active | Not Active | Not Active |  |  |  |  |  |  | 
O=c1ncn2nc(Sc3ccc(F)cc3F)ccc2c1-c1c(Cl)cccc1Cl [NEFLAMAPIMOD] |  | Not Active | Not Active | Not Active | Not Active | Not Active | Not Active | 34.2 µM | 12.8 µM |  |  |  |  | 
Nc1nc2ccc(OC(F)(F)F)cc2s1 [RILUZOLE] | Not Active | Not Active | Not Active | Not Active | Not Active | Not Active | Not Active |  |  |  |  |  |  | 
C=CCC1(C(C)CCC)C(=O)NC(=O)NC1=O (stereo not drawn) [SECOBARBITAL] | Not Active | Not Active | Not Active | Not Active | Not Active | Not Active | Not Active |  |  |  |  |  |  | 
C[C@@H]1CN(c2c(F)c(N)c3c(=O)c(C(=O)O)cn(C4CC4)c3c2F)C[C@H](C)N1 [SPARFLOXACIN] | Not Active | Not Active | Not Active | Not Active | Not Active | Not Active | Not Active |  |  |  |  |  |  | 
Nc1nc2nc[nH]c2c(=S)[nH]1 [THIOGUANINE] | Not Active | Not Active | Not Active | Not Active | Not Active | Not Active | Not Active |  |  |  |  |  |  | 
Cc1cccc(N(C)C(=S)Oc2ccc3ccccc3c2)c1 [TOLNAFTATE] | Not Active | Not Active | Not Active | Not Active | Not Active | Not Active | Not Active |  |  |  |  |  |  | 
N[C@@H]1[C@H]2CN(c3nc4c(cc3F)c(=O)c(C(=O)O)cn4-c3ccc(F)cc3F)C[C@@H]12 [TROVAFLOXACIN] | Not Active | Not Active | Not Active | Not Active | Not Active | Not Active | Not Active |  |  |  |  |  |  | 
CC[C@]1(O)C[C@H]2CN(CCc3c([nH]c4ccccc34)[C@@](C(=O)OC)(c3cc4c(cc3OC)N(C=O)[C@H]3[C@@](O)(C(=O)OC)[C@H](OC(C)=O)[C@]5(CC)C=CCN6CC[C@]43[C@@H]65)C2)C1 [VINCRISTINE] | Not Active | Not Active | Not Active | Not Active | Not Active | Not Active | Not Active |  |  |  |  |  |  | 
CCCOc1ccccc1-c1nc2nn[nH]c2c(=O)[nH]1 [ZAPRINAST] | Not Active | Not Active | Not Active | Not Active | Not Active | Not Active | Not Active |  |  |  |  |  |  | 
SODIUM NITROPRUSSIDE | Not Active | Not Active | Not Active | Not Active | Not Active | Not Active | Not Active |  |  | Not Active | Not Active | Not Active | Not Active | Not Active
